Converted amounts (≈) assume the structure as drawn. Each block holds one compound with its values, some of them ahead of it.
Experiments:
Alpha-glucosidase [1] = molecular target: T1, Alpha-glucosidase (Saccharomyces cerevisiae S288c, UniProt P53341+P38158+P07265); test: Inhibition of yeast alpha-glucosidase using p-nitrophenyl-alpha-D-glucopyranoside as substrate incubated for 30 mins by spectrophotometric assay; type: protein assay
Alpha-glucosidase [2] = molecular target: T1, Alpha-glucosidase; test: Inhibition of Saccharomyces cerevisiae alpha-glucosidase assessed as release of p-nitrophenol using pNPG as substrate preincubated for 15 mins followed by substrate addition and measured after 5 mins by spectrophotometric assay; type: protein assay
Alpha-glucosidase [3] = molecular target: T1, Alpha-glucosidase; test: Inhibition of Saccharomyces cerevisiae alpha-glucosidase assessed as release of p-nitrophenol using pNPG as substrate preincubated for 15 mins followed by substrate addition and measured after 15 mins by plate reader analysis; type: protein assay
Alpha-glucosidase [4] = molecular target: T1, Alpha-glucosidase; test: Inhibition of Saccharomyces cerevisiae alpha-glucosidase using pNPG as preincubated for 15 mins followed by substrate addition and measured after 30 mins by spectroscopic analysis
Alpha-glucosidase [5] = molecular target: T1, Alpha-glucosidase; test: Inhibition of Saccharomyces cerevisiae alpha-glucosidase using PNPG as substrate incubated for 30 mins by spectrophotometric assay; type: protein assay
Alpha-glucosidase [6] = molecular target: T1, Alpha-glucosidase; test: Inhibition of Saccharomyces cerevisiae alpha-glucosidase using maltose as substrate incubated for 30 mins by spectrophotometric assay; type: protein assay

IC50 (Alpha-glucosidase [1]): 44 µM
Structure (SMILES): COc1cc2c(=O)c3c(O)c(C/C=C(\C)CCC=C(C)C)c(O)cc3oc2cc1O [COWAXANTHONE]

IC50 (Alpha-glucosidase [2]): 194.7 µM
Structure (SMILES): C=C(C)/C=C/C1(C)C=CC2=C(O1)C(CC=C(C)C)=C1O[C@]34C(C(=O)[C@@H]1C2O)[C@@H](O)[C@@H]1C[C@H]3C(C)(C)O[C@@]4(C/C=C(\C)C(=O)O)C1=O (stereo partly specified)

IC50 (Alpha-glucosidase [2]): > 300 µM
Structure (SMILES): CC(C)=CCC/C(C)=C/Cc1c(C)c(CC=C(C)C)c2c(c1O)C(=O)C1=C[C@@H]3C[C@H]4C(C)(C)O[C@@](C/C=C(\C)C(=O)O)(C3=O)[C@@]14O2

IC50 (Alpha-glucosidase [3]): 59 µg/mL (≈ 185 µM)
Structure (SMILES): COc1cc(OC)c2c(=O)c3c(O)c(OC)ccc3oc2c1O

IC50 (Alpha-glucosidase [1]): 94.4 µM
Structure (SMILES): C=C(C)/C=C/c1c(OC)c(OC)cc2oc3cc(O)c(CC(O)C(=C)C)c(O)c3c(=O)c12 (stereo unspecified)

IC50 (Alpha-glucosidase [4]): 142 µM
Structure (SMILES): COc1cc(O[C@H]2O[C@@H](CO[C@H]3OC[C@@H](O)[C@H](O)[C@H]3O)[C@H](O)[C@H](O)[C@@H]2O)c2c(=O)c3c(O)ccc(OC)c3oc2c1OC

IC50 (Alpha-glucosidase [4]): 389 µM
Structure (SMILES): COc1cc(O)c2c(=O)c3c(O[C@@H]4O[C@H](CO)[C@@H](O)[C@H](O)[C@H]4O)ccc(O)c3oc2c1 [SWERTIANOLIN]

IC50 (Alpha-glucosidase [4]): > 1000 µM
Structure (SMILES): COc1ccc(O)c2c(=O)c3c(O)cc(O[C@H]4O[C@@H](CO)[C@H](O)[C@H](O)[C@@H]4O)cc3oc12

IC50 (Alpha-glucosidase [3]): 63.4 µg/mL (≈ 208 µM)
Structure (SMILES): COc1c(O)cc2oc3ccc(O)c(OC)c3c(=O)c2c1O

IC50 (Alpha-glucosidase [5]): 31.7 µM
IC50 (Alpha-glucosidase [6]): 155.6 µM
Structure (SMILES): C=C(C)/C=C/c1c(OC)c(O)cc2oc3cc4c(c(O)c3c(=O)c12)C=C(O)C(C)(C)O4

IC50 (Alpha-glucosidase [4]): 417 µM
Structure (SMILES): COc1ccc(O)c2c(=O)c3c(O[C@H]4O[C@@H](CO[C@H]5OC[C@@H](O)[C@H](O)[C@H]5O)[C@H](O)[C@H](O)[C@@H]4O)cc(O)c(OC)c3oc12

IC50 (Alpha-glucosidase [2]): > 300 µM
Structure (SMILES): C=C(C)C1CCC2(C)CC1c1c(O)c3c(c(CC=C(C)C)c1O2)O[C@]12C(=C[C@@H]4C[C@H]1C(C)(C)O[C@@]2(C/C=C(\C)C(=O)O)C4=O)C3=O (stereo partly specified)

IC50 (Alpha-glucosidase [2]): > 300 µM
Structure (SMILES): C=C(C)/C=C/[C@@]1(C)C=CC2=C(O1)C(CC=C(C)C)=C1O[C@]34C(=C[C@@H]5C[C@H]3C(C)(C)O[C@@]4(CC=C(C)C)C5=O)C(=O)[C@@H]1C2O (stereo partly specified)

IC50 (Alpha-glucosidase [2]): 111.8 µM
Structure (SMILES): C=C(C)/C=C/[C@]1(C)C=CC2=C(O1)C(CC=C(C)C)=C1O[C@]34C(C(=O)[C@@H]1C2O)[C@@H](OCC)[C@@H]1C[C@H]3C(C)(C)O[C@@]4(C/C=C(\C)C(=O)O)C1=O (stereo partly specified)

IC50 (Alpha-glucosidase [2]): 282.7 µM
Structure (SMILES): C=C(C)/C=C/[C@@]1(C)C=CC2=C(O1)C(CC=C(C)C)=C1O[C@]34C(C(=O)[C@@H]1C2O)[C@@H](OC)[C@@H]1C[C@H]3C(C)(C)O[C@@]4(C/C=C(\C)C(=O)O)C1=O (stereo partly specified)

IC50 (Alpha-glucosidase [3]): 27.6 µg/mL (≈ 107 µM)
Structure (SMILES): COc1ccc(O)c2c(=O)c3cc(O)ccc3oc12

IC50 (Alpha-glucosidase [5]): 29.9 µM
IC50 (Alpha-glucosidase [6]): 140.2 µM
Structure (SMILES): C=C(C)/C=C/c1c(O)cc2oc3cc(O)c(OC)c(CCC(C)(C)O)c3c(=O)c2c1O

IC50 (Alpha-glucosidase [2]): 140.95 µM
Structure (SMILES): CC(C)=CCC1=C2O[C@]34C(=C[C@@H]5C[C@H]3C(C)(C)O[C@@]4(CC=C(C)C)C5=O)C(=O)[C@@H]2C(O)C2=C1OC(C)C=C2 (stereo partly specified)

IC50 (Alpha-glucosidase [2]): > 300 µM
Structure (SMILES): CC(C)=CCC/C(C)=C/Cc1c(C)c(CC=C(C)C)c2c(c1O)C(=O)C1=C[C@@H]3C[C@H]4C(C)(C)O[C@@](CC=C(C)C)(C3=O)[C@@]14O2

IC50 (Alpha-glucosidase [4]): 478 µM
Structure (SMILES): COc1ccc(O)c2c(=O)c3c(O[C@H]4O[C@@H](CO[C@@H]5O[C@@H](CO)[C@H](O)[C@H](O)[C@@H]5O)[C@H](O)[C@H](O)[C@@H]4O)cc(O)c(OC)c3oc12

IC50 (Alpha-glucosidase [5]): 63.5 µM
IC50 (Alpha-glucosidase [6]): > 200 µM
Structure (SMILES): C=C(C)/C=C/c1ccc2oc3c(O)cc(OC)c(CC=O)c3c(=O)c2c1O

IC50 (Alpha-glucosidase [5]): 58.5 µM
IC50 (Alpha-glucosidase [6]): > 200 µM
Structure (SMILES): C=C(C)/C=C/c1c(OC)cc2c(c1O)Cc1cccc(O)c1O2

IC50 (Alpha-glucosidase [2]): 108.75 µM
Structure (SMILES): C=C(C)/C=C/[C@]1(C)C=CC2=C(O1)C(CC=C(C)C)=C1O[C@]34C(C(=O)[C@@H]1C2O)[C@@H](OC)[C@@H]1C[C@H]3C(C)(C)O[C@@]4(C/C=C(\C)C(=O)O)C1=O (stereo partly specified)

IC50 (Alpha-glucosidase [4]): 442 µM
Structure (SMILES): COc1c(OC)c(O[C@H]2O[C@@H](CO[C@H]3OC[C@@H](O)[C@H](O)[C@H]3O)[C@H](O)[C@H](O)[C@@H]2O)c2c(=O)c3c(O)ccc(OC)c3oc2c1OC

IC50 (Alpha-glucosidase [2]): 209.2 µM
Structure (SMILES): C=C(C)/C=C/[C@]1(C)C=CC2=C(O1)C(CC=C(C)C)=C1O[C@]34C(=C[C@@H]5C[C@H]3C(C)(C)O[C@@]4(CC=C(C)C)C5=O)C(=O)[C@@H]1C2O (stereo partly specified)

IC50 (Alpha-glucosidase [1]): 69 µM
Structure (SMILES): COc1c(O)ccc2oc3c4c(c(CC=C(C)C)c(O)c3c(=O)c12)OC(C(C)(O)CCC=C(C)C)C4 (stereo unspecified)

IC50 (Alpha-glucosidase [3]): 12.8 µg/mL (≈ 46.7 µM)
Structure (SMILES): COc1c(O)cc(O)c2c(=O)c3cc(O)ccc3oc12

IC50 (Alpha-glucosidase [3]): 7.6 µg/mL (≈ 27.7 µM)
Structure (SMILES): COc1c(O)cc2oc3ccc(O)cc3c(=O)c2c1O

IC50 (Alpha-glucosidase [5]): 45 µM
IC50 (Alpha-glucosidase [6]): > 200 µM
Structure (SMILES): C=C(C)C1Cc2c(c(O)cc3oc4cc(O)c(CC=C(C)C)c(O)c4c(=O)c23)O1 (stereo unspecified) [MANGOSTENONE G]

IC50 (Alpha-glucosidase [1]): 18.2 µM
Structure (SMILES): C=C(C)/C=C/c1c(OC)c(OC)cc2oc3cc(O)c(CC=C(C)C)c(O)c3c(=O)c12

IC50 (Alpha-glucosidase [4]): 258 µM
Structure (SMILES): COc1ccc(O)c2c(=O)c3c(O[C@H]4O[C@@H](CO)[C@H](O[C@H]5O[C@@H](CO)[C@H](O)[C@H](O)[C@@H]5O)[C@H](O)[C@@H]4O)cc(O)c(OC)c3oc12

IC50 (Alpha-glucosidase [4]): > 1000 µM
Structure (SMILES): COc1cccc2c(=O)c3c(O)cc(O[C@H]4O[C@@H](CO)[C@H](O)[C@H](O)[C@@H]4O)c(OC)c3oc12

IC50 (Alpha-glucosidase [5]): 34.2 µM
IC50 (Alpha-glucosidase [6]): 92.2 µM
Structure (SMILES): C=C(C)/C=C/c1c(OC)c(O)cc2oc3cc4c(c(O)c3c(=O)c12)C=CC(C)(C)O4

IC50 (Alpha-glucosidase [4]): 679 µM
Structure (SMILES): O=c1c2c(O)cc(O)cc2oc2c(O)ccc(O[C@@H]3O[C@H](CO)[C@@H](O)[C@H](O)[C@H]3O)c12 [NORSWERTIANOLIN]

IC50 (Alpha-glucosidase [4]): 136 µM
Structure (SMILES): COc1cc(O)c2c(=O)c3c(O[C@H]4O[C@@H](CO[C@H]5OC[C@@H](O)[C@H](O)[C@H]5O)[C@H](O)[C@H](O)[C@@H]4O)ccc(OC)c3oc2c1OC

IC50 (Alpha-glucosidase [2]): > 300 µM
Structure (SMILES): C=C(C)/C=C/[C@@]1(C)C=CC2=C(O1)C(CC=C(C)C)=C1O[C@]34C(C(=O)[C@@H]1C2O)[C@@H](OCC)[C@@H]1C[C@H]3C(C)(C)O[C@@]4(C/C=C(\C)C(=O)O)C1=O (stereo partly specified)

IC50 (Alpha-glucosidase [3]): 13.2 µg/mL (≈ 45.8 µM)
Structure (SMILES): COc1cc(O)c2c(=O)c3cc(O)ccc3oc2c1OC

IC50 (Alpha-glucosidase [2]): > 300 µM
Structure (SMILES): CC(C)=CCC1=C2O[C@]34C(C[C@@H]5C[C@H]3C(C)(C)O[C@@]4(C/C=C(\C)C(=O)O)C5=O)C(=O)[C@@H]2C(O)C2=C1OC(C)C=C2 (stereo partly specified)

IC50 (Alpha-glucosidase [5]): 50.5 µM
IC50 (Alpha-glucosidase [6]): > 200 µM
Structure (SMILES): C=C(C)/C=C/c1c(OC)cc2c(c1O)Cc1c(O)ccc(O)c1O2

IC50 (Alpha-glucosidase [4]): 578 µM
Structure (SMILES): COc1ccc(O)c2c(=O)c3c(O[C@H]4O[C@@H](CO)[C@H](O)[C@H](O)[C@@H]4O)cc(O)c(OC)c3oc12

IC50 (Alpha-glucosidase [2]): 136.35 µM
Structure (SMILES): CO[C@@H]1C2C(=O)[C@H]3C(=C(CC=C(C)C)C4=C(C=CC(C)O4)C3O)O[C@@]23[C@H]2C[C@@H]1C(=O)[C@]3(C/C=C(\C)C(=O)O)OC2(C)C (stereo partly specified)

IC50 (Alpha-glucosidase [1]): 8.3 µM
Structure (SMILES): C=C(C)/C=C/c1c(O)c(OC)c(/C=C/C(=C)C)c2c(=O)c3c(O)c(CC(O)C(=C)C)c(O)cc3oc12 (stereo unspecified)

IC50 (Alpha-glucosidase [1]): 21.2 µM
Structure (SMILES): CC1Oc2cc(O)c3c(=O)c4c(O)ccc(O)c4oc3c2C1(C)C (stereo unspecified)

IC50 (Alpha-glucosidase [4]): > 1000 µM
Structure (SMILES): COc1c(OC)c(O)c2c(=O)c3c(O[C@H]4O[C@@H](CO[C@H]5OC[C@@H](O)[C@H](O)[C@H]5O)[C@H](O)[C@H](O)[C@@H]4O)ccc(OC)c3oc2c1OC
